“Also recorded” adds a separate entry of the source.
What was measured:
MEK = conditions: biochemical assays; cited from earlier work
tumor xenograft models = conditions: cited from earlier work
[1] = compared with CI-1040; cited from earlier work
[2] = compared with CI-1040; cited from earlier work; remark: listed apart in the source
[3] = compared with CI-1040; cited from earlier work; remark: listed apart in the source
PR1-HRE CA9 promoter [4] = experiment: PR1-HRE-luc CA9 promoter luciferase-renilla reporter assay in HEK293 cells; format: cell-based, human
Experimental: The inventors used PR1-HRE promoter region of CA9 ([…]) that contains HRE element and SP1 binding site, and assessed its transcriptional activity in luciferase-renilla reporter system. First, the PR1-HRE-luc plasmid was co-transfected together with renilla internal standard to HEK293 cells plated in high density and treated by the U0126 inhibitor of ERK (MAP kinases) for 20 h (FIG. 8). The promoter activity was analyzed in the transfected cells incubated in normoxic conditions or in the presence of DFO that can induce a chemical hypoxia. The promoter activity was determined as a ratio between the luciferase-related luminescence and renilla-related luminescence.
(§1) The PR1-HRE-luc promoter construct was generated by an insertion of a −50/+37 CA9 genomic region amplified by PCR upstream of the firefly luciferase gene in pGL3-Basic luciferase reporter vector (Promega). pRL-TK renilla vector (Promega) served for the control of the transfection efficiency.

PR1-HRE CA9 promoter [5] = experiment: PR1-HRE-luc CA9 promoter luciferase-renilla reporter assay in HeLa cells; format: cell-based, human
Excerpt: as §1
Therefore, the inventors have cloned a −50/+37 CA9 genomic region, containing that module in its natural context relative to the transcription start site, upstream of the reporter luciferase gene. The PR1-HRE-luc promoter construct was then co-transfected with the renilla-coding control plasmid to HeLa cells that express CA IX protein in response to hypoxia and high cell density.

CA IX protein = experiment: Immunoblotting of endogenous CA IX protein expression in HeLa cells; format: cell-based, human; conditions: data not shown; for CA IX protein level / hypoxic induction of CA IX protein: Example 9, hypoxia
Experimental: HeLa cells were plated in dense (80,000 cells/cm^2) and sparse (10,000 cells/cm^2) cultures and incubated for 24 h. […] Parallel control dishes were pre-treated and maintained in normoxia for the same time period.
For the detection of CA IX, the cells were extracted with cold RIPA buffer for 15 min at 4° C. The extracts were then centrifuged (15 min at 13,000 rpm) and total protein concentrations were determined by BCA assay (Pierce, Rockford, Ill.). Samples of 30 μg total proteins were separated by the electrophoresis using 10% SDS-PAGE and blotted onto the PVDF membrane. Before immunodetection, the membrane was treated by the blocking buffer containing 5% non-fat milk in PBS with 0.2% Nonidet P-40 for 1 h and incubated for 1 h with M75 MAb diluted 1:2 in the blocking buffer. Then the membrane was washed, incubated for 1 h with the anti-mouse secondary antibody, washed again and developed with the ECL detection system. Intensity of CA IX-specific bands was analyzed by the Scion Image Beta 4.02 software (Scion Corporation, Frederick, Md.), and relative CA IX expression was expressed as percentages.

PR1-HRE CA9 promoter [6] = tested on: PR1-HRE CA9 promoter
Experimental: To dissect a direct contribution of HIF-1 to transcriptional activation of CA9 promoter, the inventors performed an additional experiment using Ka1.13 cell line that is defective for HIF-1α. The Ka1.13 cells were transfected either with PR1-HRE-luc reporter plasmid+renilla standard+control pcDNA3.1 plasmid or with the PR1-HRE-luc reporter plasmid+renilla standard+HIF-1α cDNA.
Cultures were pre-incubated with the inhibitors 1 h before the induction of hypoxia or addition of DFO.
The cells were plated into 30 mm Petri dishes to reach approximately 60% monolayer density on the next day. Transfection was performed with the 2 μg of PR1-HRE-luc and 100 ng of pRL-TK plasmids DNAs using a GenePorterII reagent (Gene Therapy Systems, San Diego, Calif.) according to the manufacturer's recommendation. One day later, the transfected cells were trypsinized and plated in triplicates into 24-well plates at different densities so that the dense culture contained eight times more cells than the sparse one. The cells were allowed to attach for 20 h, then they were pre-treated with inhibitors for 1 h and transferred to hypoxia (or treated with DFO) for additional 24 h. Reporter gene expression was assessed 48 h after the transfection using the Dual-Luciferase Reporter Assay System (Promega) and the luciferase activity was normalized against the renilla expression.
Therefore, the Ka13 cells were plated at intermediate density, transfected with the PR1-HRE-luc promoter construct together with the renilla control plasmid and pcDNA3.1 plasmid, pre-treated with the U0126 MAPK pathway inhibitor and exposed to a DFO-induced hypoxia. Parallel dishes were maintained in absence of DFO.

[7] = Phase I and II clinical trials; cited from earlier work

## Cn1cnc2c(F)c(Nc3ccc(Br)cc3Cl)c(C(=O)NOCCO)cc21 [ARRY-142886]
MEK
  selectivity for MEK: high selectivity for MEK
Tumor xenograft models
  anti-tumor activity: potent anti-tumor activity

## O=C(NOC[C@H](O)CO)c1ccc(F)c(F)c1Nc1ccc(I)cc1F [PD-0325901]
Tumor xenograft models
  anti-tumor activity: potent anti-tumor activity
[1]
  solubility: more soluble
[2]
  metabolic stability: improved metabolic stability
[3]
  bioavailability: improved

## N#CC(=C(/N)Sc1ccccc1N)/C(C#N)=C(\N)Sc1ccccc1N [U0126]
PR1-HRE CA9 promoter [4]; Example 1, HEK293 plated in high density, inhibitor 20 h, normoxia or DFO-induced hypoxia
  PR1-HRE CA9 promoter transcriptional activity (luciferase/renilla ratio): down-regulation of the PR1-HRE CA9 promoter activity; also recorded: diminished PR1-HRE transcriptional activity both in normoxia and in hypoxia
PR1-HRE CA9 promoter [4]; Example 5, HEK293 dense culture exposed to hypoxia, data not shown
  CA9 promoter activity: considerably inhibited; also recorded: remarkable reduction
PR1-HRE CA9 promoter [5]; Example 5, HeLa sparse and dense, normoxia or DFO hypoxia, 20 μM inhibitor
  CA9 promoter activity: about fourfold decrease; also recorded: remarkable reduction
PR1-HRE CA9 promoter [5]; Example 8, dense hypoxic (1% O2) HeLa, 20 μM U0126, 10 μM LY294002
  CA9 promoter activity, fraction of control value: about one third
PR1-HRE CA9 promoter [5]; Example 8, normoxic and sparse HeLa cells, compared with dense hypoxic cells
  effect on CA9 promoter activity: less pronounced
CA IX protein; Example 2, sparse and dense HeLa, normoxia (21% O2) and hypoxia (2% O2)
  CA IX protein expression (Western blotting): evident also at the level of CA IX protein
CA IX protein; Example 5, HeLa, hypoxia and/or high density
  endogenous CA IX protein levels: corresponded with the promoter activities
CA IX protein; HeLa
  CA IX protein level / hypoxic induction of CA IX protein: reduced the CA IX protein level
PR1-HRE CA9 promoter [6]; Example 3, Ka1.13 cells with control pcDNA3.1 or HIF-1α cDNA
  PR1-HRE CA9 promoter transcriptional activity: reduced the CA9 promoter activity in both the presence and absence of HIF-1α; also recorded: diminished transcription from PR1-HRE promoter both in the presence and in the absence of HIF-1α
PR1-HRE CA9 promoter [6]; Example 6, Ka13 co-transfected with wild-type HIF-1α cDNA
  CA9 promoter activity, fraction of HIF-1α induced value: approximately one third
PR1-HRE CA9 promoter [6]; Example 6, Ka13 with empty pcDNA3.1 (no HIF-1α), with and without DFO
  CA9 promoter activity, remaining fraction: less than a half

## Rencarex: an MN-specific drug tested in Phase I and II clinical trials
[7]
  tolerability / drug-related side effects: well-tolerated, with no serious drug-related side effects

## mithramycin A [MMA]
CA IX protein; HeLa
  CA IX protein level / hypoxic induction of CA IX protein: reduced the CA IX protein level

— US20080038251A1, “MN/CA IX and MAPK inhibition” (priority 2006, published 2008)
